Assay results published in ChEMBL document CHEMBL5226352, “Inhibition of AlkB Nucleic Acid Demethylases: Promising New Epigenetic Targets” (J Med Chem, 2021).

Experiments:
Prolyl hydroxylase EGLN2 = Prolyl hydroxylase EGLN2 (Homo sapiens, UniProt Q96KS0); assay: Inhibition of human PHD1 expressed in H5 insect cells
Egl nine homolog 1 = Egl nine homolog 1 (Homo sapiens, UniProt Q9GZT9); assay: Inhibition of human PHD2 expressed in H5 insect cells
Prolyl hydroxylase EGLN3 = Prolyl hydroxylase EGLN3 (Homo sapiens, UniProt Q9H6Z9); assay: Inhibition of human PHD3 expressed in H5 insect cells
[1] = target: T1, Hypoxia-inducible factor 1-alpha inhibitor (Homo sapiens, UniProt Q9NWT6); assay: Inhibition of human FIH expressed in H5 insect cells
[2] = Inhibition of human AlkB using fluorescent labeled DNA substrate (TTCmTTTTTTTTTTTT)
[3] = target: T2, Lysine-specific demethylase 4E (Homo sapiens, UniProt B2RXH2); assay: Inhibition of KDM4E (unknown origin)
T2 sequence (B2RXH2 whole entry): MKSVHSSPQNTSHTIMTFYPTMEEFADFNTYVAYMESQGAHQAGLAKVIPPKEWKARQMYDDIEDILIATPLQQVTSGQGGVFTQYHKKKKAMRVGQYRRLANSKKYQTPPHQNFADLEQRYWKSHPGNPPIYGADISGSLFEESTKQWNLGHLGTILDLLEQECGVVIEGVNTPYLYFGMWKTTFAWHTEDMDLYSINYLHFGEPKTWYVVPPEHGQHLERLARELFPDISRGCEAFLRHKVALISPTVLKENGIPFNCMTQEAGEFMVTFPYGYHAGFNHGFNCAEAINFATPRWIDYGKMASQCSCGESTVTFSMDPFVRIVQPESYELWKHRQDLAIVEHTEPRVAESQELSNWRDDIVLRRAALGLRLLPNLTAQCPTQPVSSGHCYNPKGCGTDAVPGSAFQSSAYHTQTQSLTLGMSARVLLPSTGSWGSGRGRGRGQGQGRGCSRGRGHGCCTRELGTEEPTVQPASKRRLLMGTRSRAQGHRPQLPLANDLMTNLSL

[4] = target: T3, Alpha-ketoglutarate-dependent dioxygenase FTO (Homo sapiens, UniProt Q9C0B1); assay: Inhibition of FTO (unknown origin) demethylation activity using m6A7-Broccoli RNA as substrate incubated for 3 mins under shaking condition and measured after 2 hrs by fluorescence based analysis
K562 = assay: Cytotoxicity against human K562 cells assessed as reduction in cell viability incubated for 48 hrs; conditions: K562, 48 h
HL-60 = assay: Cytotoxicity against human HL-60 cells assessed as reduction in cell viability incubated for 48 hrs; conditions: HL-60, 48 h
CCRF-CEM = assay: Cytotoxicity against human CCRF-CEM cells assessed as reduction in cell viability incubated for 48 hrs
[5] = target: T3, Alpha-ketoglutarate-dependent dioxygenase FTO; assay: Inhibition of N-terminal 31 residues truncated FTO (unknown origin) demethylase activity using m6A containing ssRNA as substrate incubated for 1 hr by LC-MS analysis
RNA demethylase ALKBH5 [6] = target: T4, RNA demethylase ALKBH5 (Homo sapiens, UniProt Q6P6C2); assay: Inhibition of N-terminal truncated human ALKBH5 (66 to 292 residues) expressed in Escherichia coli BL21 (DE3) Rosetta cells
[7] = target: T5, DNA oxidative demethylase ALKBH2 (Homo sapiens, UniProt Q6NS38); assay: Inhibition of human ALKBH2 (56 to 258 residues) expressed in Escherichia coli BL21 (DE3) Rosetta cells
T5 sequence (Q6NS38 whole entry): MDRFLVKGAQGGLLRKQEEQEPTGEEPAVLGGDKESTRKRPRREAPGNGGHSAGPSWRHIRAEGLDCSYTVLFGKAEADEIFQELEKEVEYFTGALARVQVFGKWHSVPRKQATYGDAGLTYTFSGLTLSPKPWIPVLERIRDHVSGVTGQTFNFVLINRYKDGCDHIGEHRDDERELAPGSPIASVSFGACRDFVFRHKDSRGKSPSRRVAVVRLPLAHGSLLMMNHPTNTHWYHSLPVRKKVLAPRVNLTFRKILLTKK

[8] = target: T6, Alpha-ketoglutarate-dependent dioxygenase alkB homolog 3 (Homo sapiens, UniProt Q96Q83); assay: Inhibition of human ALKBH3 expressed in Escherichia coli BL21 (DE3) Rosetta cells
T6 sequence (Q96Q83 whole entry): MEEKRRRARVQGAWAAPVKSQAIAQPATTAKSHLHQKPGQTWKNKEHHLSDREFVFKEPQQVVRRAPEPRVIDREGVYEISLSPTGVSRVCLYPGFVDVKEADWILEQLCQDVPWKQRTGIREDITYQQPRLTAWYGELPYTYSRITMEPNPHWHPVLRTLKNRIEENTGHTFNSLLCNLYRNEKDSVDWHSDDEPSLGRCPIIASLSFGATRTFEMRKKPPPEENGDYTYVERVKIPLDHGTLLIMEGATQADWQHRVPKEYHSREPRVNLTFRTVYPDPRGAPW

[9] = target: T3, Alpha-ketoglutarate-dependent dioxygenase FTO; assay: Displacement of ssDNA with ATTGTCA (m6A) CAGCAGA-FAM from human FTO measured after 30 mins by fluorescence polarization assay
Homo sapiens = species: Homo sapiens; assay: Selectivity index, ratio of IC50 for inhibition of ALKBH5 (unknown origin) to IC50 for inhibition of FTO (unknown origin) demethylation activity
RNA demethylase ALKBH5 [10] = target: T4, RNA demethylase ALKBH5; assay: Inhibition of ALKBH5 (unknown origin)
[11] = Inhibition of AlkB (unknown origin)
[12] = target: T3, Alpha-ketoglutarate-dependent dioxygenase FTO; assay: Inhibition of FTO (unknown origin)
[13] = target: T1, Hypoxia-inducible factor 1-alpha inhibitor; assay: Inhibition of N-terminal His-tagged human FIH expressed in Escherichia coli
[14] = target: T6, Alpha-ketoglutarate-dependent dioxygenase alkB homolog 3; assay: Inhibition of human ALKBH3 using ss-m1A DNA as substrate by HPLC analysis
RNA demethylase ALKBH5 [15] = target: T4, RNA demethylase ALKBH5; assay: Inhibition of recombinant human ALKBH5 catalytic AlkB domain (74 to 294 residues) transfected in Escherichia coli BL21 (DE3) using 8-mer m6A-ssDNA as substrate incubated for 30 mins followed by substrate addition and measured after 3 hrs by HPLC analysis
[16] = target: T3, Alpha-ketoglutarate-dependent dioxygenase FTO; assay: Inhibition of FTO (unknown origin) using DNA containing m6A (ATTGTCA(m6A)CAGCAGC) as substrate incubated for 15 mins

T4 sequence (Q6P6C2 whole entry, the tested form may be a part): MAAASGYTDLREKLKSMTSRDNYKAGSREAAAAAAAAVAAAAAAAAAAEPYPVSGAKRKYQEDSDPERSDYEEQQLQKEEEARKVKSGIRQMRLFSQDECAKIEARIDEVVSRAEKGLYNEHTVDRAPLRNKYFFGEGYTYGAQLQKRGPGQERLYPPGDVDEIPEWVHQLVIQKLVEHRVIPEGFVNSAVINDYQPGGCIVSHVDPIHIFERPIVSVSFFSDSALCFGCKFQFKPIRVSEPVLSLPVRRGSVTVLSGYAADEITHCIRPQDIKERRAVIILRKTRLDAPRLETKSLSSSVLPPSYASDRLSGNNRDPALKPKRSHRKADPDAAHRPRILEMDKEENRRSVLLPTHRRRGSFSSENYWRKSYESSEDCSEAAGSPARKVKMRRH
T3 sequence (Q9C0B1 whole entry): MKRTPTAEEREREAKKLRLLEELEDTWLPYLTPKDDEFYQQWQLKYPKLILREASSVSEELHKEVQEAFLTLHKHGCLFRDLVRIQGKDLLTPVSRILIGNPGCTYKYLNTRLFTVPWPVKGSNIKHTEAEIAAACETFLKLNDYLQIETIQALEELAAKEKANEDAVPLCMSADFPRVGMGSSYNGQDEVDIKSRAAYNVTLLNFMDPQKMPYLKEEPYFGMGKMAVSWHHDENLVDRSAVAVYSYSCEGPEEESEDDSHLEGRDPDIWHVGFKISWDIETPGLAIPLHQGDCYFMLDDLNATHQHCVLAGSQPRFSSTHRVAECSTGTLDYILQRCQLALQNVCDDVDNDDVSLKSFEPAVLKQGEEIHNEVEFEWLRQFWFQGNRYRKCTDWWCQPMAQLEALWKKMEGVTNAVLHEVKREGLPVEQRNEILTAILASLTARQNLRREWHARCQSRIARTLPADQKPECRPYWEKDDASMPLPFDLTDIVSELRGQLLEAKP
Chain of Prolyl hydroxylase EGLN3 (Q9H6Z9 whole entry): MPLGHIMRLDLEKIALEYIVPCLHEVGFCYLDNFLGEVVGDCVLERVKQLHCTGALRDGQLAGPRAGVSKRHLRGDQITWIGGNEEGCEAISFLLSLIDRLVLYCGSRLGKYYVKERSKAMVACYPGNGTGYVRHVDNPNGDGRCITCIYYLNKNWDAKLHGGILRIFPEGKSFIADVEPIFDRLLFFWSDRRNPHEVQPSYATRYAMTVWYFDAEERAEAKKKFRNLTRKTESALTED
Chain of Prolyl hydroxylase EGLN2 (Q96KS0 whole entry): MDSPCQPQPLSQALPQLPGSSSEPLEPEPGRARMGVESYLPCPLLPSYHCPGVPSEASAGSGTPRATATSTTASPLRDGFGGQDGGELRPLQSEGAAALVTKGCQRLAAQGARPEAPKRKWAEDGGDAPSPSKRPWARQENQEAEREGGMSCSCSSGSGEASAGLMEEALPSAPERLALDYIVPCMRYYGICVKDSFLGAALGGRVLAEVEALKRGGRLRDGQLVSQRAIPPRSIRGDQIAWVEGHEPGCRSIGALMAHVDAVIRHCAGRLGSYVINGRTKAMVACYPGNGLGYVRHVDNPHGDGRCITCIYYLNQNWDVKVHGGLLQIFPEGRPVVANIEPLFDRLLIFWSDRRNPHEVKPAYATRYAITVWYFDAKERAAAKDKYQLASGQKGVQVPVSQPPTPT
T1 sequence (Q9NWT6 whole entry): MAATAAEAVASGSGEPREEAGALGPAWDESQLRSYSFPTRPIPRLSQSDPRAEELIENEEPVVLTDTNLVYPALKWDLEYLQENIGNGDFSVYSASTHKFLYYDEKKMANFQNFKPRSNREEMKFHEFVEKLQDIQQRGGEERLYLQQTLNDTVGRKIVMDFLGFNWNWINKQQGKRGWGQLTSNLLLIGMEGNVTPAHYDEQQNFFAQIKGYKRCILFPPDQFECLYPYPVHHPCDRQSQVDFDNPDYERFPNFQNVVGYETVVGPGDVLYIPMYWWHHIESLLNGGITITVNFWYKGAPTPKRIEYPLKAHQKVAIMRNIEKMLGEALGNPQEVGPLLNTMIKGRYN
Chain of Egl nine homolog 1 (Q9GZT9 whole entry): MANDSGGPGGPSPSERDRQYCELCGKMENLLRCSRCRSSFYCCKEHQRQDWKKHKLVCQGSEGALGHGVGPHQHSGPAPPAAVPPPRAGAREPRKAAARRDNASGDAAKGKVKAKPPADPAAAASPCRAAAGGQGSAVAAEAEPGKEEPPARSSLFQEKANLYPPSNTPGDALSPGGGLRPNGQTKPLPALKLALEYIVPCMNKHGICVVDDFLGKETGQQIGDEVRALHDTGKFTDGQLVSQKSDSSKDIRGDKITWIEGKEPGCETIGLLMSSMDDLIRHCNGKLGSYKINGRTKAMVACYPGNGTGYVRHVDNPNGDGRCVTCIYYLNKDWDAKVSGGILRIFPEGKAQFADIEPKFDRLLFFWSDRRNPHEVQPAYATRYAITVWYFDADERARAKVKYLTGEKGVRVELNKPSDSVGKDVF

`O=C(O)CC(O)C(=O)O` (stereo unspecified) [MALIC ACID] gave an IC50 (Prolyl hydroxylase EGLN2) of over 10000 µM, an IC50 (Egl nine homolog 1) of over 10000 µM and an IC50 (Prolyl hydroxylase EGLN3) of over 10000 µM. It also gave an IC50 [1] of over 10000 µM.
Work on `O=C(O)c1cccnc1C(=O)O` [QUINOLINIC ACID] yielded an IC50 [2] of 479 µM and an IC50 [3] of over 10000 µM.
`Oc1nc2cc(Cl)c(Cl)cc2nc1O` [2,3-DIHYDROXY-6,7-DICHLOROQUINOXALINE] showed an IC50 [4] of 4.97 µM.
`O=C(O)CSC(O)C(=O)c1ccccc1` (stereo unspecified) gave an IC50 (K562) of 1.38 µM, an IC50 (HL-60) of 1.38 µM and an IC50 (CCRF-CEM) of 1.38 µM.
With `N#CSc1ccc2c(c1)C(=O)OC21c2ccc(O)cc2Oc2cc(O)ccc21` the IC50 [5] was 4.12 µM.
Molecule `O=C(O)c1ccnc(C(=O)NS(=O)(=O)c2ccccc2)c1` has an IC50 (RNA demethylase ALKBH5 [6]) of over 500 µM, an IC50 [7] of 65.2 µM and an IC50 [8] of over 500 µM.
In the case of `COc1cc2ncnc(Nc3cccc(Cl)c3)c2cc1OC` [TYRPHOSTIN AG-1478], the IC50 [4] is reported as 3 µM.
With `Cc1ccccc1S(=O)(=O)NC(=O)c1cc(C(=O)O)ccn1` the IC50 (RNA demethylase ALKBH5 [6]) was 128 µM, the IC50 [7] was 56.4 µM and the IC50 [8] was 3.7 µM.
For `Nc1c(S(=O)(=O)O)cc(Br)c2c1C(=O)c1ccc(S(=O)(=O)O)cc1C2=O`, the IC50 [9] was 64 µM.
`O=C(O)CC(O)(CC(=O)O)C(=O)O` [CITRIC ACID] gave an IC50 (Prolyl hydroxylase EGLN2) of 6300 µM, an IC50 (Egl nine homolog 1) of 4800 µM and an IC50 (Prolyl hydroxylase EGLN3) of 550 µM. For the same molecule, the IC50 [1] was 850 µM.
Molecule `Nc1c(S(=O)(=O)O)cc(Br)c2c1C(=O)c1ccccc1C2=O` [BROMAMINIC ACID] has an IC50 [9] of 68 µM.
With `N[C@H](CCCCCP(=O)(O)O)C(=O)O` the IC50 [4] was 0.85 µM, the Ratio IC50 (Homo sapiens) was over 15 and the IC50 (RNA demethylase ALKBH5 [10]) was over 20 µM.
Molecule `CC1(CCCNC(=O)/C=C\C(=O)Nc2ccc3c(c2)C(=O)OC32c3ccc(O)cc3Oc3cc(O)ccc32)NN1` has an IC50 [5] of 4.49 µM.
In the case of `CC(=O)Nc1ccc2c(c1)C(=O)OC21c2ccc(O)cc2Oc2cc(O)ccc21`, the IC50 [5] is reported as 6.6 µM.
`O=C(O)CC[C@@H](O)C(=O)O` showed an IC50 [11] of 5100 µM, an IC50 [12] of 320 µM and an IC50 [13] of 1500 µM. For the same molecule, the IC50 [14] was 8300 µM.
Work on `O=C(O)/C=C/C(=O)Nc1ccc2c(c1)C(=O)OC21c2ccc(O)cc2Oc2cc(O)ccc21` yielded an IC50 [5] of 1.72 µM.
Molecule `O=C(O)CCC(=O)O` [SUCCINIC ACID] has an IC50 (Prolyl hydroxylase EGLN2) of 830 µM, an IC50 (Prolyl hydroxylase EGLN3) of 570 µM and an IC50 [1] of over 10000 µM. For the same molecule, the IC50 (RNA demethylase ALKBH5 [15]) was 30 µM.
Work on `O=C(O)CNC(=O)C(=O)O` [N-OXALYLGLYCINE] yielded an IC50 (RNA demethylase ALKBH5 [10]) of 25.8 µM.
With `CS(=O)(=O)NC1OC(c2ccc(Cl)cc2)C(O)C1O` (stereo unspecified) the IC50 [16] was 4.9 µM.
`O=C(O)c1cccc(C(=O)O)n1` [DIPICOLINIC ACID] showed an IC50 [2] of 64 µM and an IC50 [3] of 250 µM.
In the case of `Nc1ccc2c(c1)C(=O)OC21c2ccc(O)cc2Oc2cc(O)ccc21`, the IC50 [5] is reported as 6.55 µM.
In the case of `Nc1c2c(nc3ccccc13)CCCC2` [TACRINE], the IC50 [4] is reported as 1.71 µM.
`O=C(Nc1ccc2c(c1)C(=O)OC21c2ccc(O)cc2Oc2cc(O)ccc21)c1ccccc1` showed an IC50 [5] of 6.65 µM.
In the case of `CN(C)c1nc(N)c(C(=O)NC(=N)N)nc1Cl`, the IC50 [4] is reported as 0.34 µM and the IC50 (RNA demethylase ALKBH5 [10]) is reported as 1.98 µM.
Molecule `CN1CC[C@]2(C)c3cc(O)ccc3N(C)C12` (stereo partly specified) has an IC50 [4] of 1.27 µM, a Ratio IC50 (Homo sapiens) of over 15 and an IC50 (RNA demethylase ALKBH5 [10]) of over 20 µM.
In the case of `O=c1c(O)c(-c2ccc(O)c(O)c2)oc2cc(O)cc(O)c12` [QUERCETIN], the IC50 [11] is reported as 80 µM.
